From US20180099931A1 (AbbVie S.à.r.l., priority 2016, published 2018)
pEC50: −log10 of the molar value. Like-named read-outs stand apart in the source and are kept apart here.

Target: T1, F508delCFTR (Homo sapiens, UniProt P13569, DEL508-508)
T1 construct: expressed in transfected cells; host or cells: CFBE41o- human lung-derived epithelial cells (CFBE4lo-F508delCFTR-HRP), doxycycline-inducible
Test: Cell Surface Expression-Horse Radish Peroxidase (CSE-HRP) Assay;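 for Maximum % activity (with co-corrector): co-corrector and positive control are both the same reference corrector at 2 µM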;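 for Maximum % activity (without co-corrector): percent of the 2 µM on-plate positive control corrector response above DMSO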
Format: cell-based
Conditions: for Emax / Maximum % activity (with co-corrector): maximum at any tested concentration, normalized to on-plate positive control; for Emax: read-out: Maximum % activity (without co-corrector)

[1] = test compound without co-corrector
[2] = test compound without co-corrector, read-out: EC50 (without co-corrector)
[3] = with co-corrector (2 μM of 3-[(2R,4R)-4-({[1-(2,2-difluoro-1,3-benzodioxol-5-yl)cyclopropyl]carbonyl}amino)-7-methoxy-3,4-dihydro-2H-chromen-2-yl]benzoic acid)
[4] = with co-corrector (2 μM of 3-[(2R,4R)-4-({[1-(2,2-difluoro-1,3-benzodioxol-5-yl)cyclopropyl]carbonyl}amino)-7-methoxy-3,4-dihydro-2H-chromen-2-yl]benzoic acid), read-out: EC50 (with co-corrector)

T1 sequence (P13569 with tags, fused parts or gaps DEL508-508): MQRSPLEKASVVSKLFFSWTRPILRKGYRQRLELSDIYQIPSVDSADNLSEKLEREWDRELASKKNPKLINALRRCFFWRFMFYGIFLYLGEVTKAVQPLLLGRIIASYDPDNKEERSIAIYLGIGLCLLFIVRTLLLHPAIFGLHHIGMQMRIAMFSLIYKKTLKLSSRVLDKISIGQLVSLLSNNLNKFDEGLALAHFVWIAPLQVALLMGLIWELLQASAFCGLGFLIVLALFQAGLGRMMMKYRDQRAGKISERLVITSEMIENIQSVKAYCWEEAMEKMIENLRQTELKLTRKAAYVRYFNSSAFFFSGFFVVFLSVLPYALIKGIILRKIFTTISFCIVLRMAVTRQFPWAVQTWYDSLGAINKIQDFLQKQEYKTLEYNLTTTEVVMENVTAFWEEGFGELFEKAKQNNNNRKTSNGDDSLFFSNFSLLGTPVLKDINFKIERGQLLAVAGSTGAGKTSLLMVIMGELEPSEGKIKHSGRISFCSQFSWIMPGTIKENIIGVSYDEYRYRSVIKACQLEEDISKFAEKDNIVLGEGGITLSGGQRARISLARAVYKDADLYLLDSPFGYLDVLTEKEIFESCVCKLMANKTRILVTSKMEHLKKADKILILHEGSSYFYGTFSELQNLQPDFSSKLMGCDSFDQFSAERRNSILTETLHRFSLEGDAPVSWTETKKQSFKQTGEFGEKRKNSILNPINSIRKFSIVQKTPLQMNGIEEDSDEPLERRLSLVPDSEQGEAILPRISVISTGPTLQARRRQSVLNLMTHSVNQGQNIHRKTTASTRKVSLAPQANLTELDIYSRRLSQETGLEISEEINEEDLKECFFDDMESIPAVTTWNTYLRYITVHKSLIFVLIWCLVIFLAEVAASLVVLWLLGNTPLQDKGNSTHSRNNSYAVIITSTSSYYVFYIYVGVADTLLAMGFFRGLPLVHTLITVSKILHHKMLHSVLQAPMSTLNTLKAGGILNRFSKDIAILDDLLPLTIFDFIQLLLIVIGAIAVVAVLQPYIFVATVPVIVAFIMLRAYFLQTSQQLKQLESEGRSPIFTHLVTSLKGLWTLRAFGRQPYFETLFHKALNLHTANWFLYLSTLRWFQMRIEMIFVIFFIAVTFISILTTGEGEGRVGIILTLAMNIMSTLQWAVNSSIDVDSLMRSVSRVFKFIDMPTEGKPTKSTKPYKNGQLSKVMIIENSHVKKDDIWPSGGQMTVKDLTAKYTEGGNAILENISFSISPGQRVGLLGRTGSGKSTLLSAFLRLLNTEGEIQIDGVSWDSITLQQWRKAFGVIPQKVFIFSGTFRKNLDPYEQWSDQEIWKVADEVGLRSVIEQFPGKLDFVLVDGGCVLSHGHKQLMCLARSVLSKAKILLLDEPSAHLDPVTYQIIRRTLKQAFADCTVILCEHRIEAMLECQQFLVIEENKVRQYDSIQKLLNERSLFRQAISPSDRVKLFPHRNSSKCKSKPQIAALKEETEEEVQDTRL

## COc1ccc(-n2ncc(C(=O)N3[C@H](C(=O)O)[C@@H](C(C)(C)C)[C@H](NCc4cc(C(C)(C)C)ccc4OC)[C@@H]3c3ccccc3)c2C)cc1 [II-357]
[1]
  Emax: > 200%
[2]
  pEC50: 5.00 to 6.00
[3]
  Maximum % activity (with co-corrector): +++ (≥350)
[4]
  pEC50: > 6.00

## COc1ccc(C(C)(C)C)cc1CN[C@H]1[C@H](C(C)(C)C)[C@@H](C(=O)O)N(C(=O)c2cnn(C)c2-c2ccccc2)[C@H]1c1ccccc1 [II-358]
[1]
  Emax: < 100%
[2]
  pEC50: 5.00 to 6.00
[3]
  Maximum % activity (with co-corrector): +++ (≥350)
[4]
  pEC50: 5.00 to 6.00

## CCc1c(C(=O)N2[C@H](C(=O)O)[C@@H](C(C)(C)C)[C@H](NCc3cc(C(C)(C)C)ccc3OC)[C@@H]2c2ccccc2)c(C)nn1-c1ccc(F)cc1 [II-359]
[1]
  Emax: > 200%
[2]
  pEC50: 5.00 to 6.00
[3]
  Maximum % activity (with co-corrector): +++ (≥350)
[4]
  pEC50: 5.00 to 6.00

## COc1ccc(C(C)(C)C)cc1CN[C@H]1[C@H](C(C)(C)C)[C@@H](C(=O)O)N(C(=O)c2cnn(C(C)(C)C)c2C(F)(F)F)[C@H]1c1ccccc1 [II-360]
[1]
  Emax: 100 to 200%
[2]
  pEC50: 5.00 to 6.00
[3]
  Maximum % activity (with co-corrector): +++ (≥350)
[4]
  pEC50: > 6.00

## COc1ccc(C(C)(C)C)cc1CN[C@H]1[C@H](C(C)(C)C)[C@@H](C(=O)O)N(C(=O)c2cnn(-c3ccccc3)c2C)[C@H]1c1ccccc1 [II-361]
[1]
  Emax: > 200%
[2]
  pEC50: 5.00 to 6.00
[3]
  Maximum % activity (with co-corrector): +++ (≥350)
[4]
  pEC50: > 6.00

## CCn1nc(C)c(C(=O)N2[C@H](C(=O)O)[C@@H](C(C)(C)C)[C@H](NCc3cc(C(C)(C)C)ccc3OC)[C@@H]2c2ccccc2)c1C [II-362]
[1]
  Emax: 100 to 200%
[2]
  pEC50: 5.00 to 6.00
[3]
  Maximum % activity (with co-corrector): +++ (≥350)
[4]
  pEC50: 5.00 to 6.00

## COc1ccc(C(C)(C)C)cc1CN[C@H]1[C@H](C(C)(C)C)[C@@H](C(=O)O)N(C(=O)c2c(C)nn3c2CCCC3)[C@H]1c1ccccc1 [II-363]
[1]
  Emax: 100 to 200%
[2]
  pEC50: 5.00 to 6.00
[3]
  Maximum % activity (with co-corrector): +++ (≥350)
[4]
  pEC50: 5.00 to 6.00

## COc1ccc(C(C)(C)C)cc1CN[C@H]1[C@H](C(C)(C)C)[C@@H](C(=O)O)N(C(=O)c2cnn3c2CCCC3)[C@H]1c1ccccc1 [II-364]
[1]
  Emax: 100 to 200%
[2]
  pEC50: 5.00 to 6.00
[3]
  Maximum % activity (with co-corrector): +++ (≥350)
[4]
  pEC50: 5.00 to 6.00

## COc1ccc2c(c1)CCC2C(=O)N1[C@H](C(=O)O)[C@@H](C(C)(C)C)[C@H](NCc2cc(C(C)(C)C)ccc2OC)[C@@H]1c1ccccc1 (some centres unmarked) [II-365]
[1]
  Emax: > 200%
[2]
  pEC50: > 6.00
[3]
  Maximum % activity (with co-corrector): +++ (≥350)
[4]
  pEC50: > 6.00

## COc1ccc(C(C)(C)C)cc1CN[C@H]1[C@H](C(C)(C)C)[C@@H](C(=O)O)N(C(=O)[C@]2(C)CCc3c(OC)cccc32)[C@H]1c1ccccc1 [II-366]
[1]
  Emax: 100 to 200%
[2]
  pEC50: 5.00 to 6.00
[3]
  Maximum % activity (with co-corrector): +++ (≥350)
[4]
  pEC50: 5.00 to 6.00

## COc1ccc(C(C)(C)C)cc1CN[C@H]1[C@H](C(C)(C)C)[C@@H](C(=O)O)N(C(=O)C2(C)CCc3c(Cl)cccc32)[C@H]1c1ccccc1 (some centres unmarked) [II-367]
[1]
  Emax: 100 to 200%
[2]
  pEC50: 5.00 to 6.00
[3]
  Maximum % activity (with co-corrector): +++ (≥350)
[4]
  pEC50: 5.00 to 6.00

## COc1ccc(C(C)(C)C)cc1CN[C@H]1[C@H](C(C)(C)C)[C@@H](C(=O)O)N(C(=O)C2(C)CCc3ccccc32)[C@H]1c1ccccc1 (some centres unmarked) [II-368]
[1]
  Emax: 100 to 200%
[2]
  pEC50: 5.00 to 6.00
[3]
  Maximum % activity (with co-corrector): +++ (≥350)
[4]
  pEC50: 5.00 to 6.00

## COc1ccc(C(C)(C)C)cc1CN[C@H]1[C@H](C(C)(C)C)[C@@H](C(=O)O)N(C(=O)C2CCc3cc(Cl)ccc32)[C@H]1c1ccccc1 (some centres unmarked) [II-369]
[1]
  Emax: > 200%
[2]
  pEC50: > 6.00
[3]
  Maximum % activity (with co-corrector): +++ (≥350)
[4]
  pEC50: > 6.00

## COc1ccc(C(C)(C)C)cc1CN[C@H]1[C@H](C(C)(C)C)[C@@H](C(=O)O)N(C(=O)C2(c3ccccc3)COc3ccccc32)[C@H]1c1ccccc1 (some centres unmarked) [II-370]
[1]
  Emax: < 100%
[2]
  pEC50: > 6.00
[3]
  Maximum % activity (with co-corrector): +++ (≥350)
[4]
  pEC50: > 6.00

## CCC(C)(O)CC(=O)N1[C@H](C(=O)O)[C@@H](C(C)(C)C)[C@H](NCc2cc(C(C)(C)C)ccc2OC)[C@@H]1c1ccccc1 (some centres unmarked) [II-371]
[1]
  Emax: > 200%
[2]
  pEC50: 5.00 to 6.00
[3]
  Maximum % activity (with co-corrector): +++ (≥350)
[4]
  pEC50: 5.00 to 6.00

## COc1ccc(C(C)(C)C)cc1CN[C@H]1[C@H](C(C)(C)C)[C@@H](C(=O)O)N(C(=O)CC(C)(O)C(C)C)[C@H]1c1ccccc1 (some centres unmarked) [II-372]
[1]
  Emax: > 200%
[2]
  pEC50: 5.00 to 6.00
[3]
  Maximum % activity (with co-corrector): +++ (≥350)
[4]
  pEC50: 5.00 to 6.00

## COc1ccc(C(C)(C)C)nc1CN[C@H]1[C@H](C(C)(C)C)[C@@H](C(=O)O)N(C(=O)C2CCCCC2)[C@H]1c1ccccc1 [II-373]
[1]
  Emax: 100 to 200%
[2]
  pEC50: 5.00 to 6.00
[3]
  Maximum % activity (with co-corrector): +++ (≥350)
[4]
  pEC50: 5.00 to 6.00

## COc1ccc(C(C)(C)C)cc1CN[C@H]1[C@H](C(C)(C)C)[C@@H](C(=O)O)N(C(=O)C2CCC(C(F)(F)F)CC2)[C@H]1c1ccccc1 (some centres unmarked) [II-374]
[1]
  Emax: 100 to 200%
[2]
  pEC50: 5.00 to 6.00
[3]
  Maximum % activity (with co-corrector): +++ (≥350)
[4]
  pEC50: > 6.00

## COc1ccc(C(C)(C)C)cc1CN[C@H]1[C@H](C(C)(C)C)[C@@H](C(=O)O)N(C(=O)C2CC3C(CC2C)C3(C)C)[C@H]1c1ccccc1 (some centres unmarked) [II-376]
[1]
  Emax: > 200%
[2]
  pEC50: 5.00 to 6.00
[3]
  Maximum % activity (with co-corrector): +++ (≥350)
[4]
  pEC50: 5.00 to 6.00

## COc1ccc(C(C)(C)C)cc1CN[C@H]1[C@H](C(C)(C)C)[C@@H](C(=O)O)N(C(=O)C2CCC(F)(F)CC2)[C@H]1c1ccccc1 [II-377]
[1]
  Emax: 100 to 200%
[2]
  pEC50: 5.00 to 6.00
[3]
  Maximum % activity (with co-corrector): +++ (≥350)
[4]
  pEC50: 5.00 to 6.00

## COc1ccc(C(C)(C)C)cc1CN[C@H]1[C@H](C(C)(C)C)[C@@H](C(=O)O)N(C(=O)C2CCCCC2C(F)(F)F)[C@H]1c1ccccc1 (some centres unmarked) [II-378]
[1]
  Emax: > 200%
[2]
  pEC50: > 6.00
[3]
  Maximum % activity (with co-corrector): +++ (≥350)
[4]
  pEC50: > 6.00

## CCCCOC(=O)N1[C@H](C(=O)O)[C@@H](C(C)(C)C)[C@H](NCc2cc(C(C)(C)C)ccc2OC)[C@@H]1c1ccccc1 [II-383]
[1]
  Emax: > 200%
[2]
  pEC50: 5.00 to 6.00
[3]
  Maximum % activity (with co-corrector): +++ (≥350)
[4]
  pEC50: > 6.00

## C#CCOC(=O)N1[C@H](C(=O)O)[C@@H](C(C)(C)C)[C@H](NCc2cc(C(C)(C)C)ccc2OC)[C@@H]1c1ccccc1 [II-384]
[1]
  Emax: > 200%
[2]
  pEC50: 5.00 to 6.00
[3]
  Maximum % activity (with co-corrector): +++ (≥350)
[4]
  pEC50: 5.00 to 6.00

## CCCCCOC(=O)N1[C@H](C(=O)O)[C@@H](C(C)(C)C)[C@H](NCc2cc(C(C)(C)C)ccc2OC)[C@@H]1c1ccccc1 [II-385]
[1]
  Emax: > 200%
[2]
  pEC50: > 6.00
[3]
  Maximum % activity (with co-corrector): +++ (≥350)
[4]
  pEC50: > 6.00

## COc1ccc(C(C)(C)C)cc1CN[C@H]1[C@H](C(C)(C)C)[C@@H](C(=O)O)N(C(=O)O[C@H]2C[C@@H](C)CC[C@@H]2C(C)C)[C@H]1c1ccccc1 [II-386]
[1]
  Emax: > 200%
[2]
  pEC50: > 6.00
[3]
  Maximum % activity (with co-corrector): +++ (≥350)
[4]
  pEC50: > 6.00

## C=CCCOC(=O)N1[C@H](C(=O)O)[C@@H](C(C)(C)C)[C@H](NCc2cc(C(C)(C)C)ccc2OC)[C@@H]1c1ccccc1 [II-387]
[1]
  Emax: > 200%
[2]
  pEC50: 5.00 to 6.00
[3]
  Maximum % activity (with co-corrector): +++ (≥350)
[4]
  pEC50: 5.00 to 6.00

## COC(=O)N1[C@H](C(=O)O)[C@@H](C(C)(C)C)[C@H](NCc2cc(C(C)(C)C)ccc2OC)[C@@H]1c1ccccc1 [II-388]
[1]
  Emax: > 200%
[2]
  pEC50: 5.00 to 6.00
[3]
  Maximum % activity (with co-corrector): +++ (≥350)
[4]
  pEC50: 5.00 to 6.00

## CC#CCOC(=O)N1[C@H](C(=O)O)[C@@H](C(C)(C)C)[C@H](NCc2cc(C(C)(C)C)ccc2OC)[C@@H]1c1ccccc1 [II-389]
[1]
  Emax: 100 to 200%
[2]
  pEC50: 5.00 to 6.00
[3]
  Maximum % activity (with co-corrector): +++ (≥350)
[4]
  pEC50: 5.00 to 6.00

## CCCOC(=O)N1[C@H](C(=O)O)[C@@H](C(C)(C)C)[C@H](NCc2cc(C(C)(C)C)ccc2OC)[C@@H]1c1ccccc1 [II-390]
[1]
  Emax: > 200%
[2]
  pEC50: 5.00 to 6.00
[3]
  Maximum % activity (with co-corrector): +++ (≥350)
[4]
  pEC50: 5.00 to 6.00
